Reference: ChEMBL document CHEMBL5230136, “A review: Biologically active 3,4-heterocycle-fused coumarins” (Eur J Med Chem, 2021)
≈ marks a conversion by molar mass, not a printed value.

What was measured:
[1] = test system: Bacillus cereus; assay: Antibacterial activity against Bacillus cereus assessed as zone of inhibition at 20 mg/ml; type: functional; conditions: read-out: IZ
[2] = test system: Staphylococcus aureus; assay: Antibacterial activity against Staphylococcus aureus assessed as zone of inhibition; type: functional
[3] = test system: Pseudomonas aeruginosa; assay: Antibacterial activity against Pseudomonas aeruginosa assessed as zone of inhibition; type: functional
[4] = test system: Escherichia coli; assay: Antibacterial activity against Escherichia coli assessed as zone of inhibition; type: functional
[5] = test system: Klebsiella aerogenes; assay: Antibacterial activity against Enterobacter aerogenes assessed as zone of inhibition; type: functional
[6] = test system: Aspergillus niger; assay: Antifungal activity against Aspergillus niger assessed as zone of inhibition; type: functional
[7] = test system: Penicillium italicum; assay: Antifungal activity against Penicillium italicum assessed as zone of inhibition; type: functional
[8] = test system: Fusarium oxysporum; assay: Antifungal activity against Fusarium oxysporum assessed as zone of inhibition; type: functional
[9] = Cytotoxicity against human MRC5 cells assessed as reduction in cell viability measured after 72 hrs by MTT assay; type: toxicity, cell-based
[10] = test system: HCT-116/VM46; assay: cells; conditions: Homo sapiens
[11] = Antioxidant activity assessed as DPPH radical scavenging activity; type: functional
[12] = target: Dual specificity tyrosine-phosphorylation-regulated kinase 1A (Homo sapiens, UniProt Q13627); assay: Inhibition of DYRK1A (unknown origin)
[13] = target: T1, D(4) dopamine receptor (Homo sapiens) (UniProt P21917); assay: Inhibition of human D4 receptor
T1 sequence (whole entry): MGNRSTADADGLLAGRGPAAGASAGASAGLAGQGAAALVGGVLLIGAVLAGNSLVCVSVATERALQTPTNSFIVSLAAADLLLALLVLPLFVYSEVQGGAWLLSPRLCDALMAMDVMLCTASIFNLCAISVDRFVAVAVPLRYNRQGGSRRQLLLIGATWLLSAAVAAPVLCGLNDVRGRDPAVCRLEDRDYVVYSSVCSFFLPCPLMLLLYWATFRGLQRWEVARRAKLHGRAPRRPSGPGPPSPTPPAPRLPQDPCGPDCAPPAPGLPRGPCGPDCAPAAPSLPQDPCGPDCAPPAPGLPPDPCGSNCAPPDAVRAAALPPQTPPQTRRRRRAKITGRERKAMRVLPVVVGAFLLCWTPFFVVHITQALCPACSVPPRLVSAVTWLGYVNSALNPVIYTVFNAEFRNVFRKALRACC

[14] = test system: H69AR; assay: Cytotoxicity against human NCI-H69AR cells assessed as reduction in cell viability by SRB assay; type: functional, cell-based
[15] = test system: HuCC-A1; assay: Antiproliferative activity against human HuCC-A1 cells assessed as reduction in cell proliferation; type: functional, cell-based
[16] = Antiproliferative activity against human U87 cells assessed as reduction in cell viability by MTT assay; type: functional, cell-based, U-87MG ATCC; conditions: U-87 MG
[17] = test system: Botrytis cinerea; assay: Antifungal activity against Botrytis cinerea; type: functional, organism-based
[18] = test system: Escherichia coli; assay: Antibacterial activity against Escherichia coli assessed as bacterial growth inhibition; type: functional
[19] = test system: Bacillus subtilis; assay: Antibacterial activity against Bacillus subtilis assessed as zone of inhibition; type: functional
[20] = test system: Bacillus cereus; assay: Antibacterial activity against Bacillus cereus assessed as zone of inhibition; type: functional
[21] = test system: MCF7; assay: Inhibition of CKII in human MCF7 cells at 50 uM assessed as inhibition; type: cell-based
[22] = test system: HCT-116; assay: Inhibition of CKII in human HCT-116 cells at 50 uM assessed as inhibition; type: cell-based
[23] = test system: Colletotrichum camelliae; assay: Antifungal activity against Colletotrichum camelliae; type: functional, organism-based
[24] = test system: Candida albicans; assay: […] activity against Candida albicans assessed as zone of inhibition at 20 mg/ml; type: functional; conditions: read-out: IZ
[25] = Inhibition of HIV-1 integrase; design: species or system Human immunodeficiency virus 1
[26] = test system: Aspergillus ochraceus; assay: Antifungal activity against Aspergillus ochraceus assessed as zone of inhibition; type: functional
[27] = test system: Penicillium chrysogenum; assay: Antifungal activity against Penicillium chrysogenum assessed as zone of inhibition; type: functional
[28] = test system: RAW264.7; assay: Anti-inflammatory activity against mouse RAW264.7 cells assessed as inhibition of LPS-induced NO production at 50 ug/ml relative to control; type: functional; design: scale not given: the % may be the effect or the level left; conditions: dose 50 µg/ml
[29] = test system: Xanthomonas citri pv. malvacearum; assay: Antibacterial activity against Xanthomonas citri pv. malvacearum assessed as reduction in bacterial growth; type: functional; design: concentration or dose not given beside the values
[30] = test system: Fusarium verticillioides; assay: Antifungal activity against Fusarium verticillioides assessed as reduction in fungal growth; type: functional; design: concentration or dose not given beside the values
[31] = test system: Rhizoctonia solani; assay: Antifungal activity against Rhizoctonia solani assessed as reduction in fungal growth; type: functional; design: concentration or dose not given beside the values
[32] = test system: Erysiphe necator; assay: Antifungal activity against powdery mildew Erysiphe necator assessed as reduction in fungal growth; type: functional; design: concentration or dose not given beside the values
[33] = test system: Phytophthora; assay: Antimicrobial activity against Phytophthora assessed as reduction in microbial growth; type: functional; design: concentration or dose not given beside the values
[34] = test system: Botrytis cinerea; assay: Antifungal activity against gray mold Botrytis cinerea assessed as reduction in fungal growth; type: functional; design: concentration or dose not given beside the values
[35] = Antioxidant activity assessed as FRAP radical activity by FRAP assay; type: functional
[36] = test system: Serratia marcescens; assay: Antibacterial activity against Serratia marcescens assessed as zone of inhibition at 20 mg/ml; type: functional; conditions: read-out: IZ
[37] = test system: Serratia marcescens; assay: Antibacterial activity against Serratia marcescens assessed as zone of inhibition; type: functional
[38] = test system: Proteus mirabilis; assay: Antibacterial activity against Proteus mirabilis assessed as zone of inhibition; type: functional

Compound: NC1NC=NC2=C1C(c1ccc(Br)cc1)c1c(c3ccccc3oc1=O)O2 (configuration not stated)
- zone of inhibition at 20000 µg/mL [1]: 22 mm
- inhibition zone (IZ) [2]: 29 mm
- inhibition zone (IZ) [3]: 18 mm
- inhibition zone (IZ) [4]: 21 mm
- inhibition zone (IZ) [5]: 20 mm
- inhibition zone (IZ) [6]: 14 mm
- inhibition zone (IZ) [7]: 16 mm
- inhibition zone (IZ) [8]: 18 mm

Compound: COc1cc2c(cc1O)oc(=O)c1c2c(-c2ccc(OC)c(OC)c2)c2c3cc(OC)c(O)cc3ccn21
- IC50 at 72 h [9]: > 97 µM

Compound: CC[C@]1(O)C[C@@H]2CN(CCc3c([nH]c4ccccc34)[C@@](C(=O)OC)(c3cc4c(cc3OC)N(C)[C@H]3[C@@](O)(C(=O)OC)[C@H](OC(C)=O)[C@]5(CC)C=CCN6CC[C@]43[C@@H]65)C2)C1 [VINBLASTINE]
- IC50 [10]: 0.002 µM

Compound: COc1ccc(C2SCCNc3c2c(=O)oc2cc(O)ccc32)c(O)c1 (configuration not stated)
- IC50 [11]: 120 µM

Compound: O=c1oc2cc(O)ccc2c2c1[nH]c1ccc(O)cc12
- IC50 [12]: 0.0003 µM

Compound: COc1ccc2c(c1)OC(=O)C1CN(CCN3CC4CCC(CC4)C3)CCC21 (configuration not stated)
- ID50 [13]: 0.035 mg/kg

Compound: COc1cc(-c2c3n(c4c(=O)oc5cc(O)c(OC)cc5c24)CCc2c-3cc(OC)c(OC)c2O)ccc1O
- IC50 [14]: 4.3 µM
- IC50 [15]: 3.4 µM

Compound: N#CC1=C(N)Oc2c(c(=O)oc3ccccc23)C12C(=O)N(CCCCBr)c1ccccc12 (configuration not stated)
- IC50 [16]: 78 µM

Compound: CCOc1ccc2c(c1)oc(=O)c1c(C)c(C)oc12
- EC50 [17]: 1.72 µg/mL (≈ 6.66 µM)

Compound: Cc1cccc2c1oc(=O)c1cc(NC(=O)c3ccccc3)c(=O)oc12
- MIC [18]: 105 µM (≈ 36.5 µg/mL)

Compound: C=CCOc1ccc2c(c1)oc(=O)c1c(C)c(C)oc12
- EC50 [17]: 1.72 µg/mL (≈ 6.36 µM)

Compound: COc1cc2c(cc1OC)C1CCN(CCN3CC4CCC(CC4)C3)CC1C(=O)O2 (configuration not stated)
- ID50 [13]: 0.113 mg/kg

Compound: N#CC1=C(N)Oc2c(c(=O)oc3ccccc23)C1c1ccc(Br)cc1 (configuration not stated)
- inhibition zone (IZ) [2]: 28 mm
- inhibition zone (IZ) [19]: 11 mm
- inhibition zone (IZ) [20]: 19 mm
- inhibition zone (IZ) [3]: 10 mm
- inhibition zone (IZ) [4]: 20 mm
- inhibition zone (IZ) [5]: 10 mm
- inhibition zone (IZ) [6]: 12 mm
- inhibition zone (IZ) [7]: 11 mm
- inhibition zone (IZ) [8]: 20 mm

Compound: O=c1oc2cc(O)ccc2c2oc3cc(O)ccc3c12
- inhibition [21]: 50%
- inhibition [22]: 30%

Compound: Cc1coc2c1c(=O)oc1ccccc12
- EC50 [23]: 8.74 µg/mL (≈ 43.7 µM)

Compound: CCOC(=O)c1nnc2c3c(=O)oc4ccccc4c3nn2c1N
- zone of inhibition at 20000 µg/mL [24]: 10 mm

Compound: COc1ccc(-c2c3c4cc(OC)c(OS(=O)(=O)O)cc4oc(=O)c3n3ccc4cc(OC)c(OC)cc4c23)cc1O
- IC50 [25]: 8 µM

Compound: NYSTATIN
- inhibition zone (IZ) [7]: 20 mm
- inhibition zone (IZ) [8]: 26 mm
- inhibition zone (IZ) [26]: 24 mm
- inhibition zone (IZ) [27]: 24 mm

Compound: CC(CN1CCC2c3ccccc3OC(=O)C2C1)N(C)C (configuration not stated)
- ID50 [13]: 0.192 mg/kg

Compound: O=c1oc2ccc(O)cc2c2c1[nH]c1ccc(O)cc12
- IC50 [12]: 0.067 µM

Compound: O=C(O)Cc1ccccc1Nc1c(Cl)cccc1Cl [DICLOFENAC]
- Activity [28]: 62%

Compound: Cc1ccc2c3c(c(=O)oc2c1)C(c1ccccc1)N(C)C(c1ccccc1)C3 (configuration not stated)
- Activity [29]: 0%
- Activity [30]: 22%
- Activity [31]: 15%
- Activity [32]: 0%
- Activity [33]: 0%
- Activity [34]: 0%

Compound: O=c1oc2c(ccc3ccccc32)c2c1C(c1ccccc1)NC(c1ccccc1)C2 (configuration not stated)
- Activity [29]: 9%
- Activity [30]: 18%
- Activity [31]: 30%
- Activity [32]: 68%
- Activity [33]: 83%
- Activity [34]: 32%

Compound: O=c1c(O)c(-c2ccc(O)c(O)c2)oc2cc(O)cc(O)c12 [QUERCETIN]
- IC50 [35]: 53900 µM

Compound: CCOC(=O)c1nc2c3c(ncn2n1)Oc1c(c(=O)oc2ccccc12)C3c1ccc(Cl)cc1 (configuration not stated)
- zone of inhibition at 20000 µg/mL [36]: 25 mm
- inhibition zone (IZ) [2]: 23 mm
- inhibition zone (IZ) [20]: 22 mm
- inhibition zone (IZ) [37]: 25 mm
- inhibition zone (IZ) [38]: 23 mm
- inhibition zone (IZ) [6]: 14 mm
- inhibition zone (IZ) [26]: 19 mm
- inhibition zone (IZ) [27]: 20 mm
